Results published in patent US20230405023A1, “USE OF THE NAV1.6 SODIUM CHANNEL BLOCKER (S)-4-((1-BENZYLPYRROLIDIN-3-YL)(METHYL)AMINO)-2-FLUORO-5-METHYL-N(THIAZOL-4-YL)BENZENESULFONAMIDE, TOGETHER WITH STRONG INDUCERS OF CYTOCHROME P450 3A4, IN THE TREATMENT OF CONDITIONS ASSOCIATED WITH NAVI.6 ACTIVITY” (Xenon Pharmaceuticals Inc., priority 2020, published 2023).
Read-outs that look alike come from different tables or passages of the source.

What was measured:
[1] = Urinary excretion and renal clearance of Compound A in the pharmacokinetic study; format: in vivo, human; settings: for mean amount excreted unchanged in urine / mean percentage of dose excreted unchanged in urine: over 48 hours following dosing
Protocol: (§1) In this open-label, randomized study, subjects received the following treatments: • Two single oral doses of 100 mg (2×50 mg) Compound A adult immediate release tablet formulation, fasted state, administered on Day 1 and Day 12. • Repeat doses of phenytoin 100 mg TID for 10 days (from Day 3 until the morning of Day 12).
(§2) Subjects fasted overnight for a minimum of 10 hours prior to dosing on Day 1 and Day 12. An oral dose of the Compound A IR tablet treatment was administered in the morning with approximately 240 mL of water at ambient temperature, to 1 subject per 2 minute intervals. Fasting continued for at least 4 hours following administration. Water was provided as needed until 1 hour pre-dose. Water was allowed beginning 1 hour after the administration of the drug.
(§3) On Day 3 to Day 11, an oral dose of phenytoin was administered TID with approximately 240 mL of water at ambient temperature, starting at 07:30, 15:30, and 23:30 to 1 subject per 2 minute intervals. On Day 12, an oral dose of phenytoin was administered in the morning with approximately 240 mL of water at ambient temperature, starting at 07:30 (1 hour prior to Compound A dosing) to 1 subject per 2 minute intervals.
(§4) The direct measurements of this study were the plasma, whole blood, urine, and saliva concentrations of Compound A and plasma concentrations for phenytoin.

[2] = Open-label randomized pharmacokinetic drug-drug interaction study: plasma PK of Compound A alone or with phenytoin; format: in vivo, human; settings: for Cmax / AUC / Tmax / AUC(0-t) / AUC(0-inf) / half-life: human, plasma; for Cmax / AUC / Tmax / half-life: 100 mg; for AUC(0-t): read-out: mean AUC0-t; for AUC(0-inf): read-out: mean AUC0-inf; for half-life: read-out: elimination half-life (converted)
Protocol: as §1, §2, §3, §4
The magnitude of DDI was described using GMR (with/without phenytoin) and associated 90% CI of the Cmax, AUC0-t, and AUC0-inf for Compound A.

[3] = Safety: treatment-emergent adverse events (TEAEs) in the pharmacokinetic study; format: in vivo, human
Protocol: as §1
A total of 15 subjects (83%) reported 101 TEAEs over the course of the study. Three treatment periods were defined: Day 1 to Day 3 (following Compound A dosing on Day 1 and prior to start of phenytoin dosing on Day 3) corresponds to the Compound A treatment period, Day 3 to Day 12 (following phenytoin dosing on Day 3 and prior to Compound A dosing on Day 12) corresponds to the phenytoin treatment period, and Day 12 to the follow-up visit (following Compound A dosing on Day 12) corresponds to the Compound A in combination with phenytoin treatment period.

CYP3A4, CYP2D6, CYP2C9 = settings: has been reported; cited from earlier work
[4] = Compound A 100 mg + phenytoin 100 mg TID
[5] = with phenytoin 100 mg TID for 10 days (Day 12) vs Compound A alone
[6] = with vs without phenytoin comparison
[7] = whole study (Compound A, phenytoin, combination)

Cc1cc(S(=O)(=O)Nc2cscn2)c(F)cc1N(C)[C@H]1CCN(Cc2ccccc2)C1 [Compound A, (S)-4-((1-benzylpyrrolidin-3-yl)(methyl)amino)-2-fluoro-5-methyl-N-(thiazol-4-yl)benzenesulfonamide]
mean amount excreted unchanged in urine [1, 4]: 57186 ng | mean percentage of dose excreted unchanged in urine [1, 4]: 0.06% | mean amount excreted unchanged in urine ([1]; Compound A 100 mg alone): 71103 ng | mean percentage of dose excreted unchanged in urine ([1]; Compound A 100 mg alone): 0.07% | CL renal ([1]; human, urine, oral, both treatments: presence (Day 12) or absence (Day 1) of phenytoin): 0.05 to 0.0667 mL/min | CLr GMR ([1]; with/without phenytoin): 100.25% | effect of phenytoin 100 mg TID on Compound A total systemic exposure ([2]; 90% CI of GMR for AUC0-t and AUC0-inf within no effect boundaries 80.00-125.00%): did not affect | apparent clearance ([2]; Compound A alone): 5.4 L/h | apparent volume of distribution ([2]; Compound A alone): 89 L | apparent clearance ([2]; Compound A with phenytoin): 5.7 L/h | apparent volume of distribution ([2]; Compound A with phenytoin): 65 L | increase of peak plasma concentration (Cmax) ([2]; co-administered with phenytoin 100 mg TID x 10 days vs Compound A alone): approximately 22% | Cmax ([2]; oral, Compound A 100 mg alone, full sampling, read-out: mean Cmax): 3300 ng/mL | AUC ([2]; oral, Compound A 100 mg alone, truncated sampling): 19900 ng·h/mL | Cmax ([2]; oral, Compound A 100 mg alone, truncated sampling, read-out: Cmax): 3220 ng/mL | Tmax ([2]; oral, Compound A 100 mg alone, truncated sampling, read-out: Tmax): 1 h | Cmax ([2]; oral, Compound A 100 mg with phenytoin 100 mg TID x 10 days, full sampling, read-out: mean Cmax): 3720 ng/mL | AUC ([2]; oral, Compound A with phenytoin 100 mg TID x 10 days, truncated sampling): 18600 ng·h/mL | Cmax ([2]; oral, Compound A with phenytoin 100 mg TID x 10 days, truncated sampling, read-out: Cmax): 3680 ng/mL | Tmax ([2]; oral, Compound A with phenytoin 100 mg TID x 10 days, truncated sampling, read-out: Tmax): 1 h | AUC(0-t) ([2]; oral, Compound A 100 mg + phenytoin 100 mg TID x 10 days, full sampling): 17800 ng·h/mL | AUC(0-inf) ([2]; oral, Compound A 100 mg + phenytoin 100 mg TID x 10 days): 18000 ng·h/mL | AUC(0-t) ([2]; oral, Compound A 100 mg alone, full sampling): 19100 ng·h/mL | AUC(0-inf) ([2]; oral, Compound A 100 mg alone): 19800 ng·h/mL | Tmax ([2]; po, Compound A 100 mg single oral dose alone (Day 1), fasted, full sampling, read-out: time to peak plasma concentrations (Tmax)): ~1 h | Tmax ([2]; po, Compound A 100 mg single oral dose with phenytoin 100 mg TID for 10 days (Day 12), full sampling, read-out: time to peak plasma concentrations (Tmax)): ~1 h | half-life ([2]; po, Compound A alone): 10 h | half-life ([2]; po, Compound A with phenytoin): 8 h | difference in AUC0-inf [2, 5]: ~7% | difference in AUC0-t [2, 5]: approximately 4% | intra-subject CV % of AUC0-inf [2, 6]: 22% | intra-subject CV % of AUC0-t [2, 6]: 26% | intra-subject CV % of Cmax [2, 6]: 53% | AUC0-inf GMR ([2]; with/without phenytoin, 90% CI 81.75-105.23%): 92.75% | AUC0-t GMR ([2]; with/without phenytoin, 90% CI 82.54-111.67%): 96.01% | Cmax geometric mean ratio (GMR) ([2]; with/without phenytoin, 90% CI 90.94-162.38%): 121.52% | incidence of subjects with TEAEs ([3]; Compound A alone on Day 1): 39% | incidence of subjects with TEAEs ([3]; Compound A in combination with phenytoin on Day 12): 65% | deaths or SAEs [3, 7]: No deaths or SAEs occurred | subjects reporting a severe TEAE [3, 7]: None | metabolizing CYP enzymes (CYP3A4, CYP2D6, CYP2C9): metabolized by CYP3A4, CYP2D6, and to a lesser extent CYP2C9

O=C1NC(=O)C(c2ccccc2)(c2ccccc2)N1 [phenytoin, reference compound]
incidence of subjects with TEAEs ([3]; phenytoin alone from Day 3 to Day 12): 71%
